Values quoted from earlier work as cited in patent US6110927A, “Loratadine for use as an antiarrhythmic” (Pfizer Inc, priority 1999, dated 2000).

How the values were obtained:
[1] = tested on: hKv1.5 channels; details: only at concentrations much higher than therapeutic plasma levels in man
[2] = both with and without a history of similar arrhythmia
[3] = clinical studies

SMILES	block of hKv1.5 channels [1]	reported cases of atrial fibrillation with loratadine use [2]	efficacy in treating patients with atrial arrhythmias [3]
CCOC(=O)N1CCC(=C2c3ccc(Cl)cc3CCc3cccnc32)CC1 [loratadine, ethyl 4-(8-chloro-5,6-dihydro-11-H-benzo [5,6]cyclohepta-[1,2-b]-pyridin-11-ylidene)-1-piperidinecarboxylate]	blocked hKv1.5 channels in a concentration-, voltage-, time- and use-dependent manner	at least 2 cases	–
CN(CCOc1ccc(NS(C)(=O)=O)cc1)CCc1ccc(NS(C)(=O)=O)cc1 [dofetilide]	–	–	effective in treating patients with atrial arrhythmias
